Reference: US7141570B2, “N-aryl-2-oxazolidinone-5-carboxamides and their derivatives” (Pharmacia & Upjohn Company, priority 2002, dated 2006)
Values after ≈ are worked out from the molar mass of the structure shown.

How the values were obtained:
E. Faecium (EFAE 12712) = experiment: MIC, agar dilution; type: cell-based; conditions: Enterococcus faecium, E. Faecium 12712, overnight at 35° C.
Description: (§1) The in vitro MICs of test compounds were determined by a standard agar dilution method. A stock drug solution of each analog was prepared in the preferred solvent, usually DMSO:H2O (1:3). Serial 2-fold dilutions of each sample are made using 1.0 ml aliquots of sterile distilled water. To each 1.0 ml aliquot of drug was added 9 ml of molten Mueller Hinton agar medium. The drug-supplemented agar was mixed, poured into 15×100 mm petri dishes, and allowed to solidify and dry prior to inoculation.
(§2) Vials of each of the test organisms are maintained frozen in the vapor phase of a liquid nitrogen freezer. Test cultures are grown overnight at 35° C. on the medium appropriate for the organism. Colonies are harvested with a sterile swab, and cell suspensions are prepared in Trypticase Soy broth (TSB) to equal the turbidity of a 0.5 McFarland standard. A 1:20 dilution of each suspension was made in TSB. The plates containing the drug supplemented agar are inoculated with a 0.001 ml drop of the cell suspension using a Steers replicator, yielding approximately 10^4 to 10^5 cells per spot. The plates are incubated overnight at 35° C.
(§3) Following incubation the Minimum Inhibitory Concentration (MIC μg/ml), the lowest concentration of drug that inhibits visible growth of the organism, was read and recorded.

S. pneumonia (SPNE 9912) = experiment: MIC, agar dilution; type: cell-based; conditions: S. pneumonia 9912, overnight at 35° C.
Description: as §1, §2, §3

[1] = system: H. influenzae (HINF 30063); experiment: MIC, agar dilution; type: cell-based; conditions: Haemophilus influenzae, H. influenzae 30063, overnight at 35° C.
Description: as §1, §2, §3

[2] = system: M. catarrhalis (MCAT 30607); experiment: MIC, agar dilution; type: cell-based; conditions: Moraxella catarrhalis, M. catarrhalis 30607, overnight at 35° C.
Description: as §1, §2, §3

S. aureus (SAUR 31583) = experiment: MIC, agar dilution; type: cell-based; conditions: Staphylococcus aureus, S. aureus 31583, overnight at 35° C.
Description: as §1, §2, §3

[3] = system: S. epidermidis (SEPI 30593); experiment: MIC, agar dilution; type: cell-based; conditions: Staphylococcus epidermidis, S. epidermidis 30593, overnight at 35° C.
Description: as §1, §2, §3

S. pyogenes (SPYO 152) = experiment: MIC, agar dilution; type: cell-based; conditions: Streptococcus pyogenes, S. pyogenes 152, overnight at 35° C.
Description: as §1, §2, §3

[4] = system: H. influenzae (HINF 31810); experiment: MIC, agar dilution; type: cell-based; conditions: Haemophilus influenzae, H. influenzae 31810, overnight at 35° C.
Description: as §1, §2, §3

S. aureus (SAUR 9213) = experiment: MIC, agar dilution; type: cell-based; conditions: Staphylococcus aureus, S. aureus 9213, overnight at 35° C.
Description: as §1, §2, §3

Row | melting point | Structure (SMILES) | further results
1 | 159 to 160 °C | CCC(=S)NC[C@H]1CN(c2ccc(N3CCN(C(=O)COc4ccc(CN5CCOCC5)cc4)CC3)c(F)c2)C(=O)O1 [Example 7, N-({(5S)-3-[3-Fluoro-4-(4-{[4-(morpholin-4-ylmethyl)phenoxy]acetyl}piperazin-1-yl)phenyl]-2-oxo-1,3-oxazolidin-5-yl}methyl)propanethioamide] | 
2 | 160 °C | CCC(=S)NC[C@H]1CN(c2ccc(N3CCN(C(=O)CCC(=O)c4ccc(CN5CCOCC5)cc4)CC3)c(F)c2)C(=O)O1 [Example 16, N-({(5S)-3-[3-Fluoro-4-(4-{4-[4-(4-morpholinylmethyl)phenyl]-4-oxobutanoyl}-1-piperazinyl)phenyl]-2-oxo-1,3-oxazolidin-5-yl}methyl)propanethioamide] | 
3 | 199 to 200 °C (dec.) | CC(=O)NC[C@H]1CN(c2ccc(N3CCN(C(=O)CCCc4ccc(NC(=O)CN)cc4)CC3)c(F)c2)C(=O)O1 [Example 60, N-(4-{4-[4-(4-{(5S)-5-[(Acetylamino)methyl]-2-oxo-1,3-oxazolidin-3-yl}-2-fluorophenyl)-1-piperazinyl]-4-oxobutyl}phenyl)-2-aminoacetamide] | 
4 | 241 to 243 °C (dec.) | CC(=O)NC[C@H]1CN(c2ccc(N3CCN(C(=O)CN4C(=O)c5ccc(N)cc5C4=O)CC3)c(F)c2)C(=O)O1 [Example 70, N-{[(5S)-3-(4-{4-[(5-Amino-1,3-dioxo-1,3-dihydro-2H-isoindol-2-yl)acetyl]piperazin-1-yl}-3-fluorophenyl)-2-oxo-1,3-oxazolidin-5-yl]methyl}acetamide] | 
5 | 215 to 216 °C (dec.) | CC(=S)NC[C@H]1CN(c2ccc(N3CCN(C(=O)CCC(=O)c4ccc(Cl)cc4)CC3)c(F)c2)C(=O)O1 [Example 50, N-{[(5S)-3-(4-{4-[4-(4-chlorophenyl)-4-oxobutanoyl]-1-piperazinyl}-3-fluorophenyl)-2-oxo-1,3-oxazolidin-5-yl]methyl}ethanethioamide] | 
6 | 119 to 120 °C (dec.) | CC(=O)NC[C@H]1CN(c2ccc(N3CCN(C(=O)CCCc4ccc(O)cc4)CC3)c(F)c2)C(=O)O1 [Example 42, N-{[(5S)-3-(3-Fluoro-4-{4-[4-(4-hydroxyphenyl)butanoyl]piperazin-1-yl}phenyl)-2-oxo-1,3-oxazolidin-5-yl]methyl}acetamide] | 
7 | 98 °C | CCC(=S)NC[C@H]1CN(c2ccc(N3CCN(C(=O)COc4ccc(CN(CC)CC)cc4)CC3)c(F)c2)C(=O)O1 [Example 1, N-[((5S)-3-{4-[4-({4-[(Diethylamino)methyl]phenoxy}acetyl)piperazin-1-yl]-3-fluorophenyl}-2-oxo-1,3-oxazolidin-5-yl)methyl]propanethioamide] | 
8 | 190 to 192 °C | CC(=O)NC[C@H]1CN(c2ccc(N3CCN(C(=O)CCC(=O)c4ccc(CN(C)C)cc4)CC3)c(F)c2)C(=O)O1 [Example 15, N-[((5S)-3-{4-[4-(4-{4-[(Dimethylamino)methyl]phenyl}-4-oxobutanoyl)-1-piperazinyl]-3-fluorophenyl}-2-oxo-1,3-oxazolidin-5-yl)methyl]acetamide] | 
9 | 160 to 160.5 °C | CC(=O)NC[C@H]1CN(c2ccc(N3CCN(C(=O)CCC(=O)c4ccc(CNC(=O)CN(C)C)cc4)CC3)c(F)c2)C(=O)O1 [Example 22, N^1-(4-{4-[4-(4-{(5S)-5-[(Acetylamino)methyl]-2-oxo-1,3-oxazolidin-3-yl}-2-fluorophenyl)piperazin-1-yl]-4-oxobutanoyl}benzyl)-N^2,N^2-dimethylglycinamide] | 
10 | 208 to 209 °C | CC(=O)NC[C@H]1CN(c2ccc(N3CCN(C(=O)CCC(=O)c4ccc(Cl)cc4)CC3)c(F)c2)C(=O)O1 [Example 49, N-{[(5S)-3-(4-{4-[4-(4-Chlorophenyl)-4-oxobutanoyl]-1-piperazinyl}-3-fluorophenyl)-2-oxo-1,3-oxazolidin-5-yl]methyl}acetamide] | 
11 |  | CN1CCN(Cc2ccc(OCC(=O)N3CCN(c4ccc(N5C[C@H](CNC(=S)C6CC6)OC5=O)cc4F)CC3)cc2)CC1 [Compound 23] | MIC (E. Faecium (EFAE 12712)): 8 µg/mL (≈ 12.8 µM); MIC (S. pneumonia (SPNE 9912)): 0.5 µg/mL (≈ 0.8 µM); MIC [1]: 64 µg/mL (≈ 102 µM); MIC [2]: 32 µg/mL (≈ 51.2 µM); MIC (S. aureus (SAUR 31583)): > 64 µg/mL; MIC [3]: 8 µg/mL (≈ 12.8 µM); MIC (S. pyogenes (SPYO 152)): 0.5 µg/mL (≈ 0.8 µM); MIC [4]: 64 µg/mL (≈ 102 µM); MIC (S. aureus (SAUR 9213)): 16 µg/mL (≈ 25.6 µM)
